Measured values taken from patent US9296716B2, “Androgen receptor ligands” (THE PROVOST, FELLOWS, FOUNDATION SCHOLARS, & THE OTHER …, priority 2011, dated 2016).
Residue numbers refer to the chain shown, from its start. Entries after “also recorded” stand apart in the source; their conditions may differ. Like-named read-outs stand apart in the source and are kept apart here.

Legend:
LNCaP cells = assay: LNCaP cell proliferation assay (androgen deprived, AlamarBlue); assay type: cell-based; conditions: 10^−10M, 0.1% DMSO, steroid depleted conditions
Procedure: To determine the optimal DHT concentration and length of treatment required for cell proliferation assays, we tested a range of DHT concentrations in 0.1% DMSO for 5 or 7 days in LNCaP cells cultured in FBS stripped phenol red free media. […] Media and treatments were replaced every second incubation day (FIGS. 12 A and B)
For cell viability (end point) assays LNCaP, PC-3 and PWR-1E cells were seeded at 2.5*10^4/ml density in 200 μl volume of a 96-well plate in triplicate and incubated for 24 hours prior testing. Test compounds were included at different concentrations to achieve a final concentration of 0.5% DMSO in each well. Effect of 0.5% DMSO on cell-viability was also evaluated. Cell viability was assessed after 24 hours of treatment using 10% Alamar Blue reagent (Invitrogen) for each well. Cell viability was monitored by the reduction of resazurin, a blue, cell-permeable and non-toxic compound, to resorufin, a red and highly fluorescent product. Viable cells continuously convert resazurin to resorufin, increasing the overall colour and fluorescence of the media surrounding cells. Fluorescence intensity can be quantitatively determined with a fluorescence microplate reader at excitation/emission 544 nm/590 nm (Spectramax Gemini). For hormone dependent cell proliferation assays in androgen deprived LNCaP cells, cells were seeded at 2*10^4 cells/ml in a 24-well plate in triplicate. Cells were plated in phenol red free RPMI Glutamax (Invitrogen) supplemented with 10% charcoal-stripped FBS to deplete endogenous steroids 48 hours prior the assay as described in previous reports. […] Cells were treated with different concentrations of test compounds with or without 0.1 nM DHT to achieve a final concentration of 0.1% DMSO in each well. A control for the vehicle was included to ensure no effect on viability could be detected. Media and treatments were replaced every second day, after washing the cells twice with 1×PBS. Supernatants were collected after five days for secreted PSA levels evaluation and cell proliferation was assessed for the same plate using Alamar Blue in order to exclude non-specific effects due to toxicity issues.

AR-LBD wt = biological target: T1, AR-LBD wt (Homo sapiens, UniProt P10275); assay: Lanthascreen TR-FRET AR coactivator (D11-FxxLF) assay, AR-LBD wt; assay type: biochemical; conditions: for type of AR antagonism (full / partial): TR-FRET in agonist and antagonist mode; for IC50: TR-FRET, D11-FxxLF peptide, DHT = EC80
T1 sequence (P10275 669-900 limits assumed): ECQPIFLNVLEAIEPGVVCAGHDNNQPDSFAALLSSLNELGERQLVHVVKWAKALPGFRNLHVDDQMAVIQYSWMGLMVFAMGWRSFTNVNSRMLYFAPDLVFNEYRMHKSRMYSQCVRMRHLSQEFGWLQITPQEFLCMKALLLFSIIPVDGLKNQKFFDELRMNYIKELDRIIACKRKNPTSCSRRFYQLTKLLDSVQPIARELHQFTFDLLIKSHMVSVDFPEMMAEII

[1] = biological target: T2, AR LBP (AR-LBD and Fluormone complex) (Rattus norvegicus, UniProt P15207); assay: Fluorescence polarization (PolarScreen) AR competitor assay; assay type: binding; conditions: for displacement of bound fluorescently-labelled ligand from the LBP: FP assay
T2 construct: purchased Invitrogen P3018
T2 sequence (P15207 651-882 limits assumed): T1 sequence (P10275 669-900 limits assumed)
Excerpt: The TR-FRET assay cannot differentiate between direct coactivator antagonists acting on the LBD surface and ‘classical’ AR antagonists which also functionally disrupt coactivator recruitment by displacing DHT from the ligand binding pocket.
(§1) Fluorescence polarization assays are susceptible by fluorescence interference/aggregation and light scattering issues by compounds present in the wells. This could lead to false positive or false negative hits. This problem is addressed in and the presence of false ‘hits’ can be determined by plotting the total fluorescence intensity of the assay versus the anisotropy for each compound.
(§2) To minimize the possibility of such false negative or positive reporting, the FP data was rigorously interrogated through examination of both auto-fluorescence and aggregation (FIG. 3). […] Diarylhydrazides are AR Potential Selective Coactivator Interaction Disruptors
PolarScreen Androgen Receptor Competitor Assay Kit Green (Invitrogen, cat no. P3018) was used to investigate the binding of the test compound to the LBP site, occupied by a high affinity ligand (Fluormone).
100× test compound solutions in DMSO were diluted in AR green buffer (Invitrogen) to achieve 2× concentrations and placed in a 384 well plate (Corning, cat no. 3576) with 40 μl volume capacity. AR-LBD was supplemented with 5 mM DTT to prevent protein degradation. AR-LBD and Fluormone (2×) mix are prepared separately and then added to each compound dilution to achieve a final concentration LBD-fluormone of 50 nM and 2 nM respectively. Plates were incubated protected from light for at least 4 hours. Controls included a maximum mP positive control, which consists of the AR-LBD and fluormone mix (2×), and a minimum mP control, containing only Fluormone (2×). A vehicle control was added to account for DMSO effect, and a blank control containing buffer only. Fluorescence polarization was measured with PHERAstar equipment (BMG LabTech) using an optic module with excitation at 485 nm and emission at 530 nm.

[2] = biological target: T3, Estrogen Receptor alpha (ER-α) LBD (Homo sapiens, UniProt P03372); assay: TR-FRET PGC1-α coactivator recruitment assay, ERα LBD; assay type: biochemical; conditions: Estradiol = EC80; for effect on ERα recruitment of fluorescent labelled PGC1-α: 100 μM to 45 nM; for IC50: TR-FRET, ± SEM (n = 6), read-out: NR LBDs IC50 (μM) ER-α
T3 sequence (P03372 311-547 limits assumed): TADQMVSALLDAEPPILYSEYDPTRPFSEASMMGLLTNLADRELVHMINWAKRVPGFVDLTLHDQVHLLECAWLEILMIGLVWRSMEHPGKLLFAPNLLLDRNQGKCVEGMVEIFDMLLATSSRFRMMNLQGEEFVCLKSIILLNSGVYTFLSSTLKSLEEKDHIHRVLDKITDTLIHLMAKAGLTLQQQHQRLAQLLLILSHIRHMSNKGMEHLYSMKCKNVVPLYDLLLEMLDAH
Procedure: (§3) Compound binding affinities for Progesterone Receptor (PR), Glucocorticoid Receptor (GR), Estrogen Receptor alpha and Estrogen Receptor beta were determined using TR-FRET (Table 2).
(§4) Selectivity of the diarylhydrazide scaffold for the AR was determined through a TR-FRET assay in ERα (FIGS. 8A & 9A1) and ERR (FIGS. 8B & 9A2). […] The non-LBP nature of this inhibition was confirmed by a FP assay (FIGS. 9C, 9B1 & 9B2).
(§5) Lanthascreen TR-FRET AR Coactivator Assay kit (Invitrogen, cat no. PV4381) was used to screen for potential coactivator disruptors.
(§6) TR FRET values were calculated at 10 flashes per well, using a delay time of 100 μs and integration time 200 μs as recommended by the Invitrogen assay guidelines. […] A serial dilution of compounds was firstly prepared in 100×DMSO (Sigma-Aldrich) starting from the maximum desired concentration to achieve a 12 point range concentration using 96-well polypropylene plates (Nalgene Nunc, Rochester, N.Y.). Each 100× solution was diluted to 2× concentration with TR-FRET co-regulator buffer A (Invitrogen proprietary buffer), yielding a final concentration of 1% DMSO in each well.
(§7) D11-FxxLF and Tb antibody were premixed in light protecting vials prior to use. A final concentration of DTT 5 mM was used in the assay buffer in order to prevent protein degradation. All plates (agonist and antagonist mode) were incubated between 2 and 4 hours at room temperature protected from light prior to TR-FRET measurement. […] Data was fitted using the sigmoidal dose response (variable slope) available from Graphpad Prism 5. Y=Bottom+(Top-Bottom)/(1+10^((Log IC50−X)*HillSlope))
(§8) The same procedure was used for AR T877A (Invitrogen cat no. PV4667), PR (Invitrogen cat no. PV4666), ER-α (Invitrogen cat no. PV4544), ER-β (Invitrogen cat no. PV4541) and GR (Invitrogen cat no. PV4683). The assay was adapted to exclude possible non-specific aggregation mechanism of inhibition by adding very low concentration of detergent Triton X-100 (0.001%) to the assay buffer following the Shoichet review guidelines [Shoichet BK (2006) Screening in a spirit haunted world. Drug Discov Today 11:607-615].

[3] = biological target: Estrogen Receptor beta (ER-β) LBD (Homo sapiens, UniProt Q92731); assay: TR-FRET PGC1-α coactivator recruitment assay, ERβ LBD; assay type: biochemical; conditions: Estradiol = EC80; for effect on ERβ recruitment of fluorescent labelled PGC1-α: 100 μM to 45 nM; for IC50: TR-FRET, ± SEM (n = 6), read-out: NR LBDs IC50 (μM) ER-β
Procedure: as §3, §4, §5, §6, §7, §8

[4] = biological target: T4, Glucocorticoid Receptor (GR) LBD (Homo sapiens, UniProt P04150); assay: TR-FRET SRC1-4 coactivator recruitment assay, GR LBD; assay type: biochemical; conditions: Dexamethasone = EC80; for effect on SRC1-4 recruitment by GR LBD: 100 μM to 12.5 μM or single point 100 μM; for IC50: TR-FRET, ± SEM (n = 6), read-out: NR LBDs IC50 (μM) GR
T4 construct: purchased Invitrogen PV4683
T4 sequence (P04150 524-758 limits assumed): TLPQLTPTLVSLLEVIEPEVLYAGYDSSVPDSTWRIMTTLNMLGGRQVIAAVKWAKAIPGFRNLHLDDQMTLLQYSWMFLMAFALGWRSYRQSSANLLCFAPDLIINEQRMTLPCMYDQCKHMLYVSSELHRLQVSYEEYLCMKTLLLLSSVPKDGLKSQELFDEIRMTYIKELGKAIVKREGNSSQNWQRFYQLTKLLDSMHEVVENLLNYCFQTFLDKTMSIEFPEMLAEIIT
Procedure: as §3
Dexamethasone bound receptor recruitment of the fluorescently labelled SCR1-4 coactivator was unimpaired at screening concentrations up to 100 μM for all the diarylhydrazides evaluated (FIG. 5).
as §5, §6, §7, §8

AR-LBD T877A mutant = biological target: T5, AR-LBD T877A mutant (Homo sapiens, UniProt P10275, T878A); assay: TR-FRET coactivator assay, AR T877A mutant; assay type: biochemical; conditions: D11-FxxLF peptide, DHT = EC80
T5 construct: purchased Invitrogen PV4667
T5 sequence (P10275 669-900 T878A): T1 sequence (P10275 669-900 limits assumed) with T210A

[5] = biological target: T6, Progesterone Receptor (PR) LBD (Homo sapiens, UniProt P06401); assay: TR-FRET SRC1-4 coactivator recruitment assay, PR LBD; assay type: biochemical; conditions: Progesterone = EC80; for effect on PR recruitment of fluorescent labelled SRC1-4: 100 μM to 45 nM; for IC50: TR-FRET, ± SEM (n = 6), read-out: NR LBDs IC50 (μM) PR
T6 construct: purchased Invitrogen PV4666
T6 sequence (P06401 679-913 limits assumed): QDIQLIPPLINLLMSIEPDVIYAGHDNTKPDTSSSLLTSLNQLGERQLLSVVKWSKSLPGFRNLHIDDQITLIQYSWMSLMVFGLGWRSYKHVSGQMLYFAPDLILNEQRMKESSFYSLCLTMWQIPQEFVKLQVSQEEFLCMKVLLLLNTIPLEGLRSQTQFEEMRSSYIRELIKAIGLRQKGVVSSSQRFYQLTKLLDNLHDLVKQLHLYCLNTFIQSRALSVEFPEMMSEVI
Procedure: as §3, §5, §6, §7, §8

[6] = Solubility in FP assay buffer (fluorescence interference/aggregation check); assay type: physicochemical; conditions: high concentration (50 μM)
Excerpt: as §1, §2

Chain of Estrogen Receptor beta (ER-β) LBD (Q92731 264-498 limits assumed): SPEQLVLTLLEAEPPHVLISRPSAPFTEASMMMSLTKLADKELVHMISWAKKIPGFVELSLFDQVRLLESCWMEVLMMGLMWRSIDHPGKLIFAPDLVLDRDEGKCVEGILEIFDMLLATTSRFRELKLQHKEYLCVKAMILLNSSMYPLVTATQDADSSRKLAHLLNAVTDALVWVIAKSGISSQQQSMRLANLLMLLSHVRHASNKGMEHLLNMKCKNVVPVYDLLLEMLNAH

| SMILES | increase of LNCaP cell proliferation (LNCaP cells) [fold] | type of AR antagonism (full / partial) (AR-LBD wt) | displacement of bound fluorescently-labelled ligand from the LBP [1] | effect on ERα recruitment of fluorescent labelled PGC1-α [2] | IC50 [2] [µM] | effect on ERβ recruitment of fluorescent labelled PGC1-α [3] | IC50 [3] [µM] | IC50 (AR-LBD wt; read-out: AR (wt)) [µM] | IC50 (AR-LBD wt; read-out: Activity (AR wt TR-FRET)) [µM] | effect on SRC1-4 recruitment by GR LBD [4] | IC50 [4] [µM] | IC50 (AR-LBD T877A mutant) [µM] | effect on PR recruitment of fluorescent labelled SRC1-4 [5] | IC50 [5] [µM] | solubility in the chosen assay buffer [6] | inhibition at 1 µM ([1]; FP, 1 μM, read-out: inhibition of the LBD-F complex) [%] |
| --- | --- | --- | --- | --- | --- | --- | --- | --- | --- | --- | --- | --- | --- | --- | --- | --- |
| C[C@]12CCC(=O)C[C@@H]1CC[C@@H]1[C@@H]2CC[C@]2(C)[C@@H](O)CC[C@@H]12 [DHT, dihydrotestosterone, reference compound] | 2 |  |  |  |  |  |  |  |  |  |  |  |  |  |  |  |
| COc1cc(/C=N/NC(=O)c2cc3c(ccc4ccccc43)o2)cc(I)c1O [MDG15] |  | full AR antagonists | inability to displace |  |  |  |  |  |  |  |  |  |  |  |  |  |
| O=C(N/N=C/c1cccc(O)c1O)c1cc2ccccc2cc1O [MDG173] |  | full AR antagonists | inability to displace |  |  |  |  |  |  |  |  |  |  |  |  |  |
| O=C(N/N=C/c1cc(Br)ccc1O)c1cc2ccccc2cc1O [MDG292] |  | full AR antagonism; also recorded: full AR antagonists |  | partially inhibit | > 100 | partially inhibit | > 100 | 13.3 ± 3.1 | 13.3 ± 3.1 | do not affect | > 100 | 12.4 ± 2.2 | partially inhibit | 22.5 ± 5.4 |  |  |
| O=C(N/N=C/c1cc2ccccc2cc1O)c1cc2ccccc2cc1O [MDG483] |  | full AR antagonists |  | partially inhibit | 10.2 ± 3 | partially inhibit | 12 ± 0.4 |  |  | do not affect | > 100 |  | partially inhibit | 8.4 ± 1.4 | solubility issues | ~0 |
